Anti-peptide antibody induction data for one substance are collected here from US9657080B2, “Methods for treating diseases with peptides that inhibit IGF-1” (Universite Pierre et Marie Curie (Paris 6), priority 2009, dated 2017).

Where no end group is shown, it is not given here.

The series concerns female rats. Nature of the series: Subcutaneous administration to female rats: GH effects and anti-peptide antibody. The class given is in vivo.

Consider “Ac-GTSDRVYEKLAGSKNFFWKTFTSS [P7, Acetyl-GTSDRVYEKLAGSKNFFWKTFTSS]”, for which the anti-peptide antibody induction result is on record as “without inducing, nevertheless, anti-peptide antibody”.
